Measured values as given in ChEMBL document CHEMBL3045291, “Synthesis and evaluation of new potent inhibitors of CK1 and CDK5, two kinases involved in Alzheimers disease” (Med Chem Res, 2013).

Legend:
[1] = biological target: Casein kinase 1, delta tv1 (Sus scrofa, UniProt M3VH47); experiment: Inhibition of Sus scrofa (pig) casein kinase 1delta/epsilon isolated from brain using RRKHAAIGpSAYSITA and [gamma33P]ATP as substrate after 30 min by scintillation counting
[2] = biological target: Cyclin-dependent kinase 5/CDK5 activator 1 (Homo sapiens, UniProt Q00535); experiment: Inhibition of human recombinant CDK5/p25 using histone H1 and [gamma33P]ATP as substrate after 30 min by scintillation counting; type: protein-complex assay
Chain of Cyclin-dependent kinase 5/CDK5 activator 1 (Q00535 whole entry): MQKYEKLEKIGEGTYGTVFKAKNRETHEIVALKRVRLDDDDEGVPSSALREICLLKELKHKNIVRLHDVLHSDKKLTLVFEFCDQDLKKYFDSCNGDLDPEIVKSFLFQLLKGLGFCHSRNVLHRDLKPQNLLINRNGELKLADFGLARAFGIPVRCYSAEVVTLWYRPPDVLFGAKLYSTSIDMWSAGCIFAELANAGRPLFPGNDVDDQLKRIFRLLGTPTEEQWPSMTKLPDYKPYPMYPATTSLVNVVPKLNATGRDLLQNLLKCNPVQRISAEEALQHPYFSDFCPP
Chain of Cyclin-dependent kinase 5/CDK5 activator 1 (Q15078 whole entry, further chain): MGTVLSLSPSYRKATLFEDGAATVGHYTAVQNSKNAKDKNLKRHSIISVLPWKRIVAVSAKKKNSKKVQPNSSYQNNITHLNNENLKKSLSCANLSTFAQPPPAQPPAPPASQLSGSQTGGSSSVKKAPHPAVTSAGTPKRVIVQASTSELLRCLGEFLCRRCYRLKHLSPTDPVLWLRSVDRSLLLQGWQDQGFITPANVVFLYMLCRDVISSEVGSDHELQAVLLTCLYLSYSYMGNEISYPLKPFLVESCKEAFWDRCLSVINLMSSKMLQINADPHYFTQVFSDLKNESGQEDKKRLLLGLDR

[3] = biological target: Cyclin-dependent kinase 2/cyclin A (Homo sapiens, UniProt P24941); experiment: Inhibition of human recombinant CDK2/cyclin A using histone H1 and [gamma33P]ATP as substrate after 30 min by scintillation counting; type: protein-complex assay
[4] = biological target: Glycogen synthase kinase-3 (Sus scrofa, UniProt B2LUN4+I6LNT8); experiment: Inhibition of Sus scrofa (pig) glycogen synthase kinase 3alpha/beta isolated from brain using YRRAAVPPSPSLSRHSSPHQpSEDEEE and [gamma33P]ATP as substrate after 30 min by liquid scintillation counting
[5] = biological target: Cyclin-dependent kinase 5 (Homo sapiens, UniProt Q00535); experiment: Inhibition of CDK5 (unknown origin)
Chain of Cyclin-dependent kinase 5 (Q00535 whole entry): as the sequence (Q00535 whole entry) above

[6] = biological target: T1, G2/mitotic-specific cyclin-B (Asterina pectinifera, UniProt P18063); experiment: Inhibition of Asteroidea (starfish) Cyclin-dependent kinase 1/cyclin B isolated from oocyte using histone H1 and [gamma33P]ATP as substrate after 30 min by scintillation counting
T1 sequence (P18063 whole entry): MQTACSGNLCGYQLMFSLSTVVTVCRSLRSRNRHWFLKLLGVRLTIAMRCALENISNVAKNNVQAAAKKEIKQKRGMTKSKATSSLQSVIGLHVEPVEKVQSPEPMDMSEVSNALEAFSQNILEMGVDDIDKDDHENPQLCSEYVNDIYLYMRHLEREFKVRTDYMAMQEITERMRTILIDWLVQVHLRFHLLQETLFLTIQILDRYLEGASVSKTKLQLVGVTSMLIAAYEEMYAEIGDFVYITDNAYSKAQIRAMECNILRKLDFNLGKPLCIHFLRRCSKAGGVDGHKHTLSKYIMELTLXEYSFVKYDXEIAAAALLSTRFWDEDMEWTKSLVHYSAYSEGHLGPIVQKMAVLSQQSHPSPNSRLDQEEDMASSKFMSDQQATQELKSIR

[7] = biological target: Dual specificity tyrosine-phosphorylation-regulated kinase 1A (Homo sapiens, UniProt Q13627); experiment: Inhibition of Homo sapiens (human) recombinant GST-tagged DYRK1A expressed in Escherichia coli using KKISGRLSPIMTEQ and [gamma33P]ATP as substrate after 30 min by scintillation counting

Chain of Casein kinase 1, delta tv1 (M3VH47 whole entry): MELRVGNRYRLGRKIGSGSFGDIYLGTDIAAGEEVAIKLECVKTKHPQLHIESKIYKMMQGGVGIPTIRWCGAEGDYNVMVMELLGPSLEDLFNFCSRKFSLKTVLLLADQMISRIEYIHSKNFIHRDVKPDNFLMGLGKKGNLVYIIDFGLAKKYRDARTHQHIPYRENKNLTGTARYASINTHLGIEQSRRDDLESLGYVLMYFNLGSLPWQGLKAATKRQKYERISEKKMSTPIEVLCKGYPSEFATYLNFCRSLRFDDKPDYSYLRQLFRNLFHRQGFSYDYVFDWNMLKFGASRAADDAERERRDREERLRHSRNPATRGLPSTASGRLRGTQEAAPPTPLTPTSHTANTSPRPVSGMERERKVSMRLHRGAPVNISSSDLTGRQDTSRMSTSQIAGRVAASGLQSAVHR

Structure (SMILES): CC(C)n1cnc2c(Nc3cccc(-c4ncccn4)c3)nc(NC(CO)CO)nc21
- IC50 [1]: 70 nM
- IC50 [2]: 620 nM

Structure (SMILES): CC(C)n1cnc2c(Nc3ccc(-c4cncnc4)cc3)nc(Cl)nc21
- IC50 [1]: 410 nM
- IC50 [2]: 2100 nM
- IC50 [3]: 1100 nM
- IC50 [4]: > 10000 nM

Structure (SMILES): CC(C)n1cnc2c(Nc3ccc(-c4cncnc4)cc3)nc(NC(C)(C)CO)nc21
- IC50 [1]: 500 nM
- IC50 [2]: 110 nM
- IC50 [3]: 200 nM

Structure (SMILES): CC(C)n1cnc2c(Nc3cccc(-c4ncccn4)c3)nc(NC(C)(C)CO)nc21
- IC50 [1]: 50 nM
- IC50 [2]: 110 nM

Structure (SMILES): CC(C)n1cnc2c(Nc3cccc(-c4cncnc4)c3)nc(NC(C)(C)CO)nc21
- IC50 [1]: 320 nM
- IC50 [2]: 110 nM
- IC50 [3]: 110 nM

Structure (SMILES): NC1=NC(=O)/C(=C2\CCNC(=O)c3[nH]c(Br)cc32)N1 [HYMENIALDISINE]
- IC50 [5]: 30 nM

Structure (SMILES): CC(C)n1cnc2c(Nc3cccc(-c4ncccn4)c3)nc(Cl)nc21
- IC50 [1]: 60 nM
- IC50 [2]: 1900 nM
- IC50 [3]: 1900 nM
- IC50 [6]: 10000 nM
- IC50 [7]: > 10000 nM
- IC50 [4]: > 10000 nM

Structure (SMILES): CC(C)n1cnc2c(Nc3cccc(-c4cncnc4)c3)nc(Cl)nc21
- IC50 [1]: 380 nM
- IC50 [2]: 1000 nM
- IC50 [4]: > 10000 nM

Structure (SMILES): CC(C)n1cnc2c(Nc3ccc(-c4cncnc4)cc3)nc(NC(CO)CO)nc21
- IC50 [1]: 640 nM
- IC50 [2]: 190 nM
- IC50 [3]: 330 nM
